The results in this text go back to ChEMBL document CHEMBL1157687, “Inhibitory activity of Brazilian green propolis components and their derivatives on the release of cys-leukotrienes” (Bioorg Med Chem, 2010).

Structures are written as SMILES. In brackets after ≈: the same amount, converted by molar mass.

A word on the IC50: it is the concentration that gives 50% inhibition.

The subject of the assay is HL-60 (Homo sapiens). Kind of assay: Antiallergic activity in Ca(2+)-stimulated differentiated human HL-60 cells assessed as inhibition of cys-leukotriene release after 6 days by ELISA. The settings on record: HL-60, 144 h.
On to `CC(C)=CCc1cc(/C=C/C(=O)OCCc2ccccc2)cc(CC=C(C)C)c1O` [ARTEPILLIN C PHENETHYL ESTER], for which the IC50 was determined as 0.094 µg/mL (≈ 0.232 µM).

For `CC(C)=CCc1cc(/C=C/C(=O)O)cc(CC=C(C)C)c1O` [ARTEPILLIN], the 50% inhibitory concentration (IC50) amounted to 7 µg/mL (≈ 23.3 µM).

In the case of `CC(C)=CCc1cc(/C=C/C(=O)OCCc2ccccc2)ccc1OC(=O)CCc1ccccc1` [BACCHARIN PHENETHYL ESTER], the IC50 is over 10 µg/mL.

Turning to `O=C(/C=C/c1ccc(O)c(O)c1)OCCc1ccccc1` [CAFFEIC ACID PHENETHYL ESTER], the IC50 amounted to 0.068 µg/mL (≈ 0.239 µM).

For `O=C(O)/C=C/c1ccc(O)c(O)c1` [CAFFEIC ACID], the IC50 was 44 µg/mL (≈ 244 µM).

Turning to `CC(C)=CCc1cc(/C=C/C(=O)OCCc2ccccc2)cc2c1OC(C)(C)C=C2` [CULIFOLIN PHENETHYL ESTER], the IC50 is over 10 µg/mL.

With `CC(C)=CCc1cc(/C=C/C(=O)O)cc2c1OC(C)(C)C=C2` [CULIFOLIN], the half-inhibitory concentration (IC50) was 1.6 µg/mL (≈ 5.36 µM).

For the compound `CC(C)=CCc1cc(/C=C/C(=O)OCCc2ccccc2)ccc1O` [DRUPANIN PHENETHYL ESTER], the half-inhibitory concentration (IC50) came to 0.2 µg/mL (≈ 0.594 µM).

Turning to `CC(C)=CCc1cc(/C=C/C(=O)O)ccc1O` [DRUPANIN], the half-maximal inhibitory concentration (IC50) was determined as 10.3 µg/mL (≈ 44.3 µM).

As to `COc1ccc(-c2oc3cc(O)cc(O)c3c(=O)c2O)cc1` [KAEMPFERIDE], the half-maximal inhibitory concentration (IC50) amounted to 2 µg/mL (≈ 6.66 µM).

On to `O=c1c(O)c(-c2ccc(O)cc2)oc2cc(O)cc(O)c12` [KAEMPFEROL], for which the 50% inhibitory concentration (IC50) was found to be 2.4 µg/mL (≈ 8.38 µM).

On to `CC(Cc1ccc(O)c(O)c1)C(C)Cc1ccc(O)c(O)c1` (centres undefined) [NORDIHYDROGUAIARETIC ACID], for which the half-inhibitory concentration (IC50) worked out at 0.08 µg/mL (≈ 0.265 µM).

In the case of `O=C1C[C@@H](c2ccccc2)Oc2cc(O)cc(O)c21` [PINOCEMBRIN], the IC50 came to 6.1 µg/mL (≈ 23.8 µM).

On to `CC(c1cc2ccccc2s1)N(O)C(N)=O` (centres undefined) [ZILEUTON], for which the IC50 was 0.04 µg/mL (≈ 0.169 µM).
